{
  "source": "patent US9045450B2",
  "about": "“Method for chemical synthesis of antrocin and use thereof for suppressing non-small cell lung cancer” (KAIYEW INVESTMENT CORP., priority 2011, dated 2015)",
  "key": {"[1]": {"system": "H441 lung cancer cells", "test": "Microarray analysis of gene transcription in H441 cells after antrocin treatment", "format": "cell-based, Homo sapiens", "conditions": "12 hours", "method": "(§1) The present invention further investigated the effect of antrocin on cancer cells at the genetic level. After H441 cells had been treated with 5 μM antrocin for 12 hours, the effect of antrocin on genetic transcription was analyzed. Only those genes whose expressions were inhibited 3.5 times or more were analyzed as target genes by GeneSpring software package and the results were presented using a tree diagram (FIG. 5). […] These genes play important roles in cell proliferations, inflammatory responses, metastases, invasions, angiogenesis, and cell cycle regulations. […] These genes are associated with transcription factor NF-kB, for example cytokines (IFI44, IFIT1, MX1), inflammatory responses (NFkB1 and IFIT2), stem cell properties (CTNNBL1, SENP2, CEACAM1 and POU5F2), and drug resistance reactions (ABCB5, ABCG2 and XAF1), etc. Based on the aforementioned microarray results, the present invention further investigated protein expressions associated with inflammation related factors, stem cell properties, and drug resistance related molecules.\nas §1, with “effect of Antrocin on genetic” for “effect of antrocin on genetic”, “a tree diagram. STRING9.0 software package was also used to predict the effect of antrocin on the signaling pathway of H441 cells and possible target genes to be inhibited (FIG. 5).” for “a tree diagram (FIG. 5).”, “example cytokines (1F144, IFIT1, MX1),” for “example cytokines (IFI44, IFIT1, MX1),”, “further investigated inflammatory responses, stem cell” for “further investigated protein expressions associated with inflammation related factors, stem cell”, “properties, and multidrug resistance-associated protein expressions.” for “properties, and drug resistance related molecules.”"}, "[2]": {"system": "H441 cells", "test": "Apoptosis, flow cytometry", "format": "cell-based, human", "conditions": "H441, antrocin treatment for 48 hours, FIG. 4 (B)"}, "[3]": {"system": "H441-L2G cells", "test": "Lung tumorigenesis in vivo, bioluminescence imaging and survival", "set-up": "species or system non-obese diabetic/severe combined immunodeficient mice", "conditions": "for tumor growth: daily intraperitoneal injection", "method": "[…] cells (6×10^5/100 μl PBS) were intravenously injected into immunodeficient mice via lateral tail vein. Antrocin treatments (low dose of 5 mg/kg/day and high dose of 10 mg/kg/day) were performed by daily intraperitoneal injection into tumor-bearing mice over a period of four weeks. Weekly observations were performed and data were recorded for (A) VIS images, (B) Tumor growth, (C) Body weights, and (D) Survival curves.\n(§2) The present invention further investigated anticancer effect of antrocin in vivo. H441-L2G cells expressing firefly luciferase and green fluorescent protein were implanted by intravenous injections via the lateral tail vein (6×10^5/100 μl PBS) into non-obese diabetic/severe combined immunodeficient mice. Daily intraperitoneal injections of antrocin (two groups of mice, a low dose of 5 mg/kg/day and a high dose of 10 mg/kg/day) were given over a period of four weeks to observe tumor growth.\nFirefly luminescence genes (firefly luciferase) was introduced into H441 lung cancer stem cells by transgenesis, lung cancer cells (containing firefly luminescence genes) were then isolated from H441 lung cancer stem cells by FACS (Fluorescence-activated cell sorting) and implanted into immunodeficient mice subcutaneously or into the circulation system via the tail vein. IVIS imaging system (IVIS® Imaging System 200 Series, Xenogen) was used in the present embodiment for bioluminescent imaging. All mice were introduced with 150 mg/kg D-luciferin by intraperitoneal injection, after 10 minutes the mice were fixed in the darkroom of the IVIS200, the highly sensitive CCD camera of the IVIS 200 was used to detect the cold light radiated by firefly luminescence genes in H441 cancer cells. All mice were imaged for 120 seconds and the imaging time was shortened when the signal strength was saturated. All mice were anesthetized (2% isoflurane and 98% oxygen gas) and unconscious throughout the entire imaging process. Tumor sizes and signal strength radiated by the cold-light were compared and analyzed by using a software package of the IVI200. The inhibitory effect of antrocin on human lung cancer cells was assessed by using this bio-illumination-imaging system.\nas §2, with “investigated the” for “investigated”, “immunodeficiency” for “immunodeficient”, “small” for “low”, “large” for “high”"}},
  "note": "Entries after “also recorded” stand apart in the source; their conditions may differ.",
  "data": [
    {"smiles": "C=C1CC[C@H]2C(C)(C)CCC[C@@]23C(=O)OC[C@@H]13", "note": "[antrocin]", "values": [
      {"measurement": "number of genes whose expressions were significantly affected", "setting": "[1]; 5 μM antrocin", "value": "more than 100 genes"},
      {"measurement": "Multiple (reduction of gene expression)", "setting": "[1]; ABCB5, probe 8137310, 5 μM antrocin", "value": 3.62},
      {"measurement": "Multiple (reduction of gene expression)", "setting": "[1]; ABCG2, probe 8101675, 5 μM antrocin", "value": 3.93},
      {"measurement": "Multiple (reduction of gene expression)", "setting": "[1]; AKT1S1, probe 8038477, 5 μM antrocin", "value": 10.29},
      {"measurement": "Multiple (reduction of gene expression)", "setting": "[1]; ANG, probe 7973084, 5 μM antrocin", "value": 4.24},
      {"measurement": "Multiple (reduction of gene expression)", "setting": "[1]; CDC14C, probe 8132803, 5 μM antrocin", "value": 5.49},
      {"measurement": "Multiple (reduction of gene expression)", "setting": "[1]; CEACAM1, probe 8037205, 5 μM antrocin", "value": 4.99},
      {"measurement": "Multiple (reduction of gene expression)", "setting": "[1]; CXCL10, probe 8101126, 5 μM antrocin", "value": 4.62},
      {"measurement": "Multiple (reduction of gene expression)", "setting": "[1]; EDG7, probe 7917276, 5 μM antrocin", "value": 3.75},
      {"measurement": "Multiple (reduction of gene expression)", "setting": "[1]; EPSTI1, probe 7971296, 5 μM antrocin", "value": 5.61},
      {"measurement": "Multiple (reduction of gene expression)", "setting": "[1]; FLJ35880, probe 8082585, 5 μM antrocin", "value": 5.48},
      {"measurement": "Multiple (reduction of gene expression)", "setting": "[1]; FOSL1, probe 7949532, 5 μM antrocin", "value": 9.93},
      {"measurement": "Multiple (reduction of gene expression)", "setting": "[1]; GDPD1, probe 8008802, 5 μM antrocin", "value": 3.73},
      {"measurement": "Multiple (reduction of gene expression)", "setting": "[1]; IFI16, probe 7906400, 5 μM antrocin", "value": 4.9},
      {"measurement": "Multiple (reduction of gene expression)", "setting": "[1]; IFI44, probe 7902553, 5 μM antrocin", "value": 8.3},
      {"measurement": "Multiple (reduction of gene expression)", "setting": "[1]; IFIT1, probe 7929065, 5 μM antrocin", "value": 5.28},
      {"measurement": "Multiple (reduction of gene expression)", "setting": "[1]; IFIT2, probe 7929047, 5 μM antrocin", "value": 4.44},
      {"measurement": "Multiple (reduction of gene expression)", "setting": "[1]; IFITM2, probe 7937330, 5 μM antrocin", "value": 6.16},
      {"measurement": "Multiple (reduction of gene expression)", "setting": "[1]; LAMP3, probe 8092348, 5 μM antrocin", "value": 3.8},
      {"measurement": "Multiple (reduction of gene expression)", "setting": "[1]; LBA1, probe 8086125, 5 μM antrocin", "value": 4.35},
      {"measurement": "Multiple (reduction of gene expression)", "setting": "[1]; LILRA3, probe 8039226, 5 μM antrocin", "value": 4.58},
      {"measurement": "Multiple (reduction of gene expression)", "setting": "[1]; MX1, probe 8068713, 5 μM antrocin", "value": 5.42},
      {"measurement": "Multiple (reduction of gene expression)", "setting": "[1]; NFKB1, probe 8096635, 5 μM antrocin", "value": 3.85},
      {"measurement": "Multiple (reduction of gene expression)", "setting": "[1]; OAS2, probe 7958913, 5 μM antrocin", "value": 5.91},
      {"measurement": "Multiple (reduction of gene expression)", "setting": "[1]; OASL, probe 7967117, 5 μM antrocin", "value": 4.09},
      {"measurement": "Multiple (reduction of gene expression)", "setting": "[1]; OR1L8, probe 8163960, 5 μM antrocin", "value": 3.83},
      {"measurement": "Multiple (reduction of gene expression)", "setting": "[1]; PARP9, probe 8090018, 5 μM antrocin", "value": 4.03},
      {"measurement": "Multiple (reduction of gene expression)", "setting": "[1]; PARP14, probe 8082100, 5 μM antrocin", "value": 4.3},
      {"measurement": "Multiple (reduction of gene expression)", "setting": "[1]; POU5F2, probe 8113094, 5 μM antrocin", "value": 3.9},
      {"measurement": "Multiple (reduction of gene expression)", "setting": "[1]; PPARGC1A, probe 8099633, 5 μM antrocin", "value": 4.44},
      {"measurement": "Multiple (reduction of gene expression)", "setting": "[1]; RTP4, probe 8084732, 5 μM antrocin", "value": 4.6},
      {"measurement": "Multiple (reduction of gene expression)", "setting": "[1]; SAMD9L, probe 8140971, 5 μM antrocin", "value": 4.08},
      {"measurement": "Multiple (reduction of gene expression)", "setting": "[1]; SENP2, probe 8084607, 5 μM antrocin", "value": 8.9},
      {"measurement": "Multiple (reduction of gene expression)", "setting": "[1]; SIGLEC5, probe 8038877, 5 μM antrocin", "value": 4.94},
      {"measurement": "Multiple (reduction of gene expression)", "setting": "[1]; SLFN5, probe 8006531, 5 μM antrocin", "value": 3.65},
      {"measurement": "Multiple (reduction of gene expression)", "setting": "[1]; TAX1BP3, probe 8011407, 5 μM antrocin", "value": 7.15},
      {"measurement": "Multiple (reduction of gene expression)", "setting": "[1]; TNFSF10, probe 8092169, 5 μM antrocin", "value": 4.09},
      {"measurement": "Multiple (reduction of gene expression)", "setting": "[1]; TRIM22, probe 7938035, 5 μM antrocin", "value": 7.65},
      {"measurement": "Multiple (reduction of gene expression)", "setting": "[1]; XAF1, transcript variant 1, probe 8004184, 5 μM antrocin", "value": 12.61},
      {"measurement": "Multiple (reduction of gene expression)", "setting": "[1]; ZC3H6, probe 8044450, 5 μM antrocin", "value": 3.5},
      {"measurement": "Multiple (reduction of gene expression)", "setting": "[1]; cDNA DKFZp451O2417, probe 7902541, 5 μM antrocin", "value": 10.74},
      {"measurement": "Multiple (reduction of gene expression)", "setting": "[1]; catenin, beta like 1 (TNNBL1), probe 8062409, 5 μM antrocin", "value": 3.59},
      {"measurement": "number of cells in early and late (final) stage of apoptosis", "setting": "[2]", "value": "increase in the number of cells in early and late stage of apoptosis in a dose-dependent fashion; also recorded: increased significantly in a dose-dependent fashion"},
      {"measurement": "increase of median survival time", "setting": "[3]; at the end of the experiment (the fiftieth day)", "value": "at least 60%"},
      {"measurement": "mice that survived for longer than 50 days", "setting": "[3]; low dose 5 mg/kg/day", "value": 75, "unit": "%"},
      {"measurement": "tumor growth", "setting": "[3]; low dose 5 mg/kg/day, after two weeks", "value": "inhibited after two weeks in half of the mice"},
      {"measurement": "tumor growth", "setting": "[3]; low dose 5 mg/kg/day, third week", "value": "tumor growth was observed in most of these mice"},
      {"measurement": "median survival", "setting": "[3]; treated group, control group 28 days, FIG. 7 (D)", "value": "> 50", "unit": "days"}
    ]}
  ]
}
